Patent US6825202B2, “Arylsulfonyl derivatives with 5-HT6 receptor affinity” (Syntex (U.S.A.) LLC, priority 2001, dated 2004)
Counter-ions that a name gives are not always drawn.

Question: With `COc1ccc(S(=O)(=O)c2ccc(Cl)cc2)cc1N1CCNCC1` as the compound, how does the melting point read?
Answer: The melting point was 263.4 to 272.1 °C.

Question: For `COc1ccc(S(=O)(=O)c2cccc(F)c2)cc1N1CCNCC1`, which melting point is on record?
Answer: Its melting point is 246 to 250.1 °C.

Question: With `COc1ccc(S(=O)(=O)c2cc(Cl)cc(Cl)c2)cc1N1CCNCC1` as the compound, how does the melting point read?
Answer: Its melting point is 245.9 to 246.2 °C.

Question: With `COc1ccc(S(=O)(=O)c2cccc(Cl)c2)cc1N1CCNCC1` as the compound, how does the melting point read?
Answer: Its melting point is 265 to 266.3 °C.

Question: Which melting point does the source give for `COc1ccc(S(=O)(=O)c2ccc(F)c3ccccc23)cc1N1CCNCC1` (as salt: hydrochloride) [compound 401, 1-[5-(4-fluoro-naphthalene-1-sulfonyl)2-methoxyphenyl]piperazine] here?
Answer: The melting point was 155 to 159 °C.

Question: Which melting point does the source give for `COc1ccc(S(=O)(=O)c2ccc3ccccc3c2)cc1N1CCNCC1` here?
Answer: Its melting point is 279.9 to 283.3 °C.

Question: Which melting point does the source give for `COc1ccc(S(=O)(=O)c2ccc(Cl)cc2)cc1C1CCNCC1` (as salt: hydrochloride) [compound 301, 4-[5-(4-chloro-benzenesulfonyl)2methoxy-phenyl] piperidine] here?
Answer: The melting point was 235.5 to 236 °C.
